According to US11053204B2, “Pyrimidinyloxy benzene derivatives as herbicides” (FMC Corporation, priority 2015, dated 2021):

How the values were obtained:
Format in all cases: in vivo
[1] = test system: crabgrass, large (large crabgrass, Digitaria sanguinalis); test: Test C preemergence, plant response rating; conditions: Preemergence
In short: (§1)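 Greenhouse plants rated visually against untreated controls 13–15 d after treatment, scale 0 = no effect to 100 = complete control. Postemergence sprays went onto potted plants 2–18 cm tall (1–4 leaves); preemergence sprays onto soil freshly sown in loam–sand or silt loam, chemicals formulated in non-phytotoxic solvent with surfactant.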

[2] = test system: oilseed rape (Brassica napus); test: Test C preemergence, plant response rating; conditions: Preemergence
In short: as §1

[3] = test system: velvetleaf (Abutilon theophrasti); test: Test C preemergence, plant response rating; conditions: Preemergence
In short: as §1

[4] = test system: ryegrass, Italian (Italian ryegrass, Lolium multiflorum); test: Test C preemergence, plant response rating; conditions: Preemergence
In short: as §1

[5] = test system: waterhemp (common waterhemp, Amaranthus rudis); test: Test C preemergence, plant response rating; conditions: Preemergence
In short: as §1

[6] = test system: ragweed (common ragweed, Ambrosia elatior); test: Test C preemergence, plant response rating; conditions: Preemergence
In short: as §1

[7] = test system: foxtail, giant (giant foxtail, Setaria faberii); test: Test C preemergence, plant response rating; conditions: Preemergence
In short: as §1

[8] = test system: wheat (winter wheat, Triticum aestivum); test: Test C preemergence, plant response rating; conditions: Preemergence
In short: as §1

[9] = test system: lambsquarters (Chenopodium album); test: Test C preemergence, plant response rating; conditions: Preemergence
In short: as §1

[10] = test system: corn (Zea mays); test: Test C preemergence, plant response rating; conditions: Preemergence
In short: as §1

[11] = test system: blackgrass (Alopecurus myosuroides); test: Test C preemergence, plant response rating; conditions: Preemergence
In short: as §1

[12] = test system: nutsedge, yellow (yellow nutsedge, Cyperus esculentus); test: Test C preemergence, plant response rating; conditions: Preemergence
In short: as §1

[13] = test system: morningglory (Ipomoea coccinea); test: Test C preemergence, plant response rating; conditions: Preemergence
In short: as §1

[14] = test system: soybean (Glycine max); test: Test C preemergence, plant response rating; conditions: Preemergence
In short: as §1

[15] = test system: Italian ryegrass (Lolium multiflorum); test: Test A preemergence, visual injury rating; conditions: 0 to 100 scale (0 no effect, 100 complete control)
In short: (§2)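 Injury scores run from 0, no effect, to 100, complete control, judged by eye against untreated plants roughly 10 days after treatment. Chemicals carried a surfactant in a non-phytotoxic solvent and went onto loam–sand soil preemergence or onto one- to two-leaf seedlings postemergence.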

[16] = test system: pigweed (Amaranthus retroflexus); test: Test A preemergence, visual injury rating; conditions: 0 to 100 scale (0 no effect, 100 complete control)
In short: as §2

[17] = test system: ragweed (common ragweed, Ambrosia elatior); test: Test A preemergence, visual injury rating; conditions: 0 to 100 scale (0 no effect, 100 complete control)
In short: as §2

[18] = test system: giant foxtail (Setaria faberii); test: Test A preemergence, visual injury rating; conditions: 0 to 100 scale (0 no effect, 100 complete control)
In short: as §2

`N#Cc1cccc(Oc2ncc(Cl)cn2)c1CCCC(F)(F)F` [Compound 72] was tested, and the “Plant response rating, Crabgrass, Large” value ([1]; 62 g ai/ha, scale of 0 to 100) was 100, the “Plant response rating, Crabgrass, Large” value ([1]; 125 g ai/ha, scale of 0 to 100) was 100 and the “Plant response rating, Crabgrass, Large” value ([1]; 16 g ai/ha, scale 0 to 100) was 100. The “Plant response rating, Crabgrass, Large” value ([1]; 31 g ai/ha, scale 0 to 100) was 100, the “Plant response rating, Oilseed Rape” value ([2]; 125 g ai/ha, scale of 0 to 100) was 100 and the “Plant response rating, Oilseed Rape” value ([2]; 16 g ai/ha, scale 0 to 100) was 5. The “Plant response rating, Oilseed Rape” value ([2]; 31 g ai/ha, scale 0 to 100) was 80, the “Plant response rating, Oilseed Rape” value ([2]; 62 g ai/ha, scale 0 to 100) was 80 and the “Plant response rating, Velvetleaf” value ([3]; 125 g ai/ha, scale of 0 to 100) was 100. For the same compound, the “Plant response rating, Velvetleaf” value ([3]; 16 g ai/ha, scale 0 to 100) was 10, the “Plant response rating, Velvetleaf” value ([3]; 31 g ai/ha, scale 0 to 100) was 60 and the “Plant response rating, Velvetleaf” value ([3]; 62 g ai/ha, scale 0 to 100) was 55. For the same compound, the “Plant response rating, Ryegrass, Italian” value ([4]; 125 g ai/ha, scale of 0 to 100) was 100, the “Plant response rating, Ryegrass, Italian” value ([4]; 16 g ai/ha, scale 0 to 100) was 10 and the “Plant response rating, Ryegrass, Italian” value ([4]; 31 g ai/ha, scale 0 to 100) was 45. The “Plant response rating, Ryegrass, Italian” value ([4]; 62 g ai/ha, scale 0 to 100) was 45, the “Plant response rating, Waterhemp” value ([5]; 125 g ai/ha, scale of 0 to 100) was 100 and the “Plant response rating, Waterhemp” value ([5]; 16 g ai/ha, scale 0 to 100) was 100. For the same compound, the “Plant response rating, Waterhemp” value ([5]; 31 g ai/ha, scale 0 to 100) was 100, the “Plant response rating, Waterhemp” value ([5]; 62 g ai/ha, scale 0 to 100) was 100 and the “Plant response rating, Ragweed” value ([6]; 125 g ai/ha, scale of 0 to 100) was 45. For the same compound, the “Plant response rating, Ragweed” value ([6]; 16 g ai/ha, scale 0 to 100) was 0, the “Plant response rating, Ragweed” value ([6]; 31 g ai/ha, scale 0 to 100) was 0 and the “Plant response rating, Ragweed” value ([6]; 62 g ai/ha, scale 0 to 100) was 40. The “Plant response rating, Foxtail, Giant” value ([7]; 62 g ai/ha, scale of 0 to 100) was 75, the “Plant response rating, Foxtail, Giant” value ([7]; 125 g ai/ha, scale of 0 to 100) was 100 and the “Plant response rating, Foxtail, Giant” value ([7]; 16 g ai/ha, scale 0 to 100) was 55. The “Plant response rating, Foxtail, Giant” value ([7]; 31 g ai/ha, scale 0 to 100) was 80, the “Plant response rating, Wheat” value ([8]; 125 g ai/ha, scale of 0 to 100) was 80 and the “Plant response rating, Wheat” value ([8]; 16 g ai/ha, scale 0 to 100) was 0. The “Plant response rating, Wheat” value ([8]; 31 g ai/ha, scale 0 to 100) was 0, the “Plant response rating, Wheat” value ([8]; 62 g ai/ha, scale 0 to 100) was 30 and the “Plant response rating, Lambsquarters” value ([9]; 125 g ai/ha, scale of 0 to 100) was 100. For the same compound, the “Plant response rating, Lambsquarters” value ([9]; 16 g ai/ha, scale 0 to 100) was 65, the “Plant response rating, Lambsquarters” value ([9]; 31 g ai/ha, scale 0 to 100) was 80 and the “Plant response rating, Lambsquarters” value ([9]; 62 g ai/ha, scale 0 to 100) was 90. For the same compound, the “Plant response rating, Corn” value ([10]; 62 g ai/ha, scale of 0 to 100) was 20, the “Plant response rating, Corn” value ([10]; 125 g ai/ha, scale of 0 to 100) was 60 and the “Plant response rating, Corn” value ([10]; 16 g ai/ha, scale 0 to 100) was 5. The “Plant response rating, Corn” value ([10]; 31 g ai/ha, scale 0 to 100) was 20, the “Plant response rating, Blackgrass” value ([11]; 62 g ai/ha, scale of 0 to 100) was 98 and the “Plant response rating, Blackgrass” value ([11]; 125 g ai/ha, scale of 0 to 100) was 100. For the same compound, the “Plant response rating, Blackgrass” value ([11]; 16 g ai/ha, scale 0 to 100) was 60, the “Plant response rating, Blackgrass” value ([11]; 31 g ai/ha, scale 0 to 100) was 98 and the “Plant response rating, Nutsedge, Yellow” value ([12]; 125 g ai/ha, scale of 0 to 100) was 0. The “Plant response rating, Nutsedge, Yellow” value ([12]; 16 g ai/ha, scale 0 to 100) was 0, the “Plant response rating, Nutsedge, Yellow” value ([12]; 31 g ai/ha, scale 0 to 100) was 0 and the “Plant response rating, Nutsedge, Yellow” value ([12]; 62 g ai/ha, scale 0 to 100) was 0. The “Plant response rating, Morningglory” value ([13]; 125 g ai/ha, scale of 0 to 100) was 95, the “Plant response rating, Morningglory” value ([13]; 16 g ai/ha, scale 0 to 100) was 10 and the “Plant response rating, Morningglory” value ([13]; 31 g ai/ha, scale 0 to 100) was 40. For the same compound, the “Plant response rating, Morningglory” value ([13]; 62 g ai/ha, scale 0 to 100) was 55, the “Plant response rating, Soybean” value ([14]; 125 g ai/ha, scale of 0 to 100) was 90 and the “Plant response rating, Soybean” value ([14]; 16 g ai/ha, scale 0 to 100) was 0. The “Plant response rating, Soybean” value ([14]; 31 g ai/ha, scale 0 to 100) was 0, the “Plant response rating, Soybean” value ([14]; 62 g ai/ha, scale 0 to 100) was 15 and the “Ryegrass, Italian plant response rating” value ([15]; 125 g ai/ha) was 10. The “Ryegrass, Italian plant response rating” value ([15]; 500 g ai/ha) was 30, the “Pigweed plant response rating” value ([16]; 125 g ai/ha) was 100 and the “Pigweed plant response rating” value ([16]; 500 g ai/ha) was 100. For the same compound, the “Ragweed plant response rating” value ([17]; 125 g ai/ha) was 0, the “Ragweed plant response rating” value ([17]; 500 g ai/ha) was 10 and the “Foxtail, Giant plant response rating” value ([18]; 125 g ai/ha) was 90. The “Foxtail, Giant plant response rating” value ([18]; 500 g ai/ha) was 100.
